Source: ChEMBL document CHEMBL4507261, “Data for DCP probe A-192621” (2021)

Key:
[1] = target: Aurora kinase C (Homo sapiens) (UniProt Q9UQB9); settings: Compound concentration 1000.0 nM
[2] = target: Dual specificity protein kinase CLK4 (Homo sapiens) (UniProt Q9HAZ1); settings: Compound concentration 1000.0 nM
[3] = target: Cyclin-dependent kinase 8 (Homo sapiens) (UniProt P49336); settings: Compound concentration 1000.0 nM
[4] = target: Serine/threonine-protein kinase haspin (Homo sapiens) (UniProt Q8TF76); settings: Compound concentration 1000.0 nM
[5] = target: Calcium/calmodulin-dependent protein kinase type 1D (Homo sapiens) (UniProt Q8IU85); settings: Compound concentration 1000.0 nM
[6] = target: Serine/threonine-protein kinase Nek5 (Homo sapiens) (UniProt Q6P3R8); settings: Compound concentration 1000.0 nM
[7] = target: Tyrosine-protein kinase BTK (Homo sapiens) (UniProt Q06187); settings: Compound concentration 1000.0 nM
[8] = system: Proto-oncogene tyrosine-protein kinase receptor Ret (Homo sapiens), P07949 [V804M]; settings: Compound concentration 1000.0 nM
[9] = target: Beta-1 adrenergic receptor (Homo sapiens) (UniProt P08588); assay: Beta1 (h) Eurofins-Cerep binding assay; set-up: ligand concentration 0.3 nM; settings: filed as agonist, Compound concentration 10.0 uM
[10] = target: Mitogen-activated protein kinase kinase kinase 5 (Homo sapiens) (UniProt Q99683); settings: Compound concentration 1000.0 nM
[11] = target: Ribosomal protein S6 kinase alpha-6 (Homo sapiens) (UniProt Q9UK32); settings: Compound concentration 1000.0 nM
[12] = system: Tyrosine-protein kinase ABL1 (Homo sapiens), P00519 [Y253F]; settings: Compound concentration 1000.0 nM
[13] = target: Hepatocyte growth factor receptor (Homo sapiens) (UniProt P08581); settings: Compound concentration 1000.0 nM
[14] = target: Ribosomal protein S6 kinase beta-1 (Homo sapiens) (UniProt P23443); settings: Compound concentration 1000.0 nM
[15] = system: Mast/stem cell growth factor receptor Kit (Homo sapiens), P10721 [D816V]; settings: Compound concentration 1000.0 nM
[16] = target: Bone morphogenetic protein receptor type-1A (Homo sapiens) (UniProt P36894); settings: Compound concentration 1000.0 nM
[17] = target: Ephrin type-A receptor 6 (Homo sapiens) (UniProt Q9UF33); settings: Compound concentration 1000.0 nM
[18] = target: Serine/threonine-protein kinase Sgk3 (Homo sapiens) (UniProt Q96BR1); settings: Compound concentration 1000.0 nM
[19] = target: Microtubule-associated serine/threonine-protein kinase 1 (Homo sapiens) (UniProt Q9Y2H9); settings: Compound concentration 1000.0 nM
[20] = target: Phosphatidylinositol 3-kinase C2 domain-containing subunit gamma (Homo sapiens) (UniProt O75747); settings: Compound concentration 1000.0 nM
[21] = target: Phosphatidylinositol 4,5-bisphosphate 3-kinase catalytic subunit alpha isoform (Homo sapiens) (UniProt P42336); settings: Compound concentration 1000.0 nM
[22] = target: Macrophage colony-stimulating factor 1 receptor (Homo sapiens) (UniProt P07333); settings: Compound concentration 1000.0 nM
[23] = target: RAC-beta serine/threonine-protein kinase (Homo sapiens) (UniProt P31751); settings: Compound concentration 1000.0 nM
[24] = target: Rhodopsin kinase GRK7 (Homo sapiens) (UniProt Q8WTQ7); settings: Compound concentration 1000.0 nM
[25] = target: Cyclin-dependent kinase 18 (Homo sapiens) (UniProt Q07002); settings: Compound concentration 1000.0 nM
[26] = target: Mitogen-activated protein kinase 13 (Homo sapiens) (UniProt O15264); settings: Compound concentration 1000.0 nM
[27] = target: Sodium-dependent dopamine transporter (Homo sapiens) (UniProt Q01959); assay: dopamine transporter (h) Eurofins-Cerep binding assay; set-up: ligand concentration 4 nM; settings: filed as antagonist, Compound concentration 10.0 uM
[28] = target: Ephrin type-B receptor 3 (Homo sapiens) (UniProt P54753); settings: Compound concentration 1000.0 nM
[29] = target: Serine/threonine-protein kinase PLK2 (Homo sapiens) (UniProt Q9NYY3); settings: Compound concentration 1000.0 nM
[30] = target: Mitogen-activated protein kinase 14 (Homo sapiens) (UniProt Q16539); settings: Compound concentration 1000.0 nM
[31] = target: Mitogen-activated protein kinase 12 (Homo sapiens) (UniProt P53778); settings: Compound concentration 1000.0 nM
[32] = target: T1, Muscarinic acetylcholine receptor M5 (Homo sapiens) (UniProt P08912); assay: M5 (h) Eurofins-Cerep binding assay; set-up: ligand concentration 0.3 nM; settings: filed as antagonist, Compound concentration 10.0 uM
T1 sequence (whole entry): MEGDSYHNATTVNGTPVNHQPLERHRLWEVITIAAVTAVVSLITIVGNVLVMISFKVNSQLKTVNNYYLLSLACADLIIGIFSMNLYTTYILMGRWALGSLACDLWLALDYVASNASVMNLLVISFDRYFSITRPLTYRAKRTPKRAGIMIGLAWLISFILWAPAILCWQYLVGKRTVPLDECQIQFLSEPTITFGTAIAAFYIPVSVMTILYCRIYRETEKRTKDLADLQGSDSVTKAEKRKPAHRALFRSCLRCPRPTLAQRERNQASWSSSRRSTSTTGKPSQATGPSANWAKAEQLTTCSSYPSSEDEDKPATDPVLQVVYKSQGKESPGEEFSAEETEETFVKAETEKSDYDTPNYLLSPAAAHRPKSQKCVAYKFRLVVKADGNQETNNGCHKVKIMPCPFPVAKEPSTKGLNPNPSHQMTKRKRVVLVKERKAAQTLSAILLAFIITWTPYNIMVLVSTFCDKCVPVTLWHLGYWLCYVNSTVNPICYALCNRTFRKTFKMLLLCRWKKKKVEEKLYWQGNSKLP

[33] = target: Serine/threonine-protein kinase SIK3 (Homo sapiens) (UniProt Q9Y2K2); settings: Compound concentration 1000.0 nM
[34] = target: Serine/threonine-protein kinase 17B (Homo sapiens) (UniProt O94768); settings: Compound concentration 1000.0 nM
[35] = target: Serine/threonine-protein kinase 16 (Homo sapiens) (UniProt O75716); settings: Compound concentration 1000.0 nM
[36] = target: Proto-oncogene tyrosine-protein kinase Src (Homo sapiens) (UniProt P12931); settings: Compound concentration 1000.0 nM
[37] = target: Tyrosine-protein kinase receptor Tie-1 (Homo sapiens) (UniProt P35590); settings: Compound concentration 1000.0 nM
[38] = target: Cannabinoid receptor 2 (Homo sapiens) (UniProt P34972); assay: CB2 (h) Eurofins-Cerep binding assay; set-up: ligand concentration 0.8 nM; settings: filed as agonist, Compound concentration 10.0 uM

Chain of Cyclin-dependent kinase 8 (Homo sapiens) (P49336 whole entry): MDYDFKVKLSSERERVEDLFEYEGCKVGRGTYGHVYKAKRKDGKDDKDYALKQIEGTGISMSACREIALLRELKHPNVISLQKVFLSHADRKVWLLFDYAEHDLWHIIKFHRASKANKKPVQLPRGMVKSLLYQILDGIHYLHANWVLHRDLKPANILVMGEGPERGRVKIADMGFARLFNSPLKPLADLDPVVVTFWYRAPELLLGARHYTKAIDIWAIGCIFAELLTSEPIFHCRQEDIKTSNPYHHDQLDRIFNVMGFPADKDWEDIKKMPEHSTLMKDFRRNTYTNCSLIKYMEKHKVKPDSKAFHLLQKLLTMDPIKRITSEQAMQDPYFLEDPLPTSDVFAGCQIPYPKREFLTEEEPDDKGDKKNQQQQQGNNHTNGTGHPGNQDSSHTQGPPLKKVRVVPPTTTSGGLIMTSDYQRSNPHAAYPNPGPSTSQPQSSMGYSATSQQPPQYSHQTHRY
Chain of Serine/threonine-protein kinase Nek5 (Homo sapiens) (Q6P3R8 whole entry): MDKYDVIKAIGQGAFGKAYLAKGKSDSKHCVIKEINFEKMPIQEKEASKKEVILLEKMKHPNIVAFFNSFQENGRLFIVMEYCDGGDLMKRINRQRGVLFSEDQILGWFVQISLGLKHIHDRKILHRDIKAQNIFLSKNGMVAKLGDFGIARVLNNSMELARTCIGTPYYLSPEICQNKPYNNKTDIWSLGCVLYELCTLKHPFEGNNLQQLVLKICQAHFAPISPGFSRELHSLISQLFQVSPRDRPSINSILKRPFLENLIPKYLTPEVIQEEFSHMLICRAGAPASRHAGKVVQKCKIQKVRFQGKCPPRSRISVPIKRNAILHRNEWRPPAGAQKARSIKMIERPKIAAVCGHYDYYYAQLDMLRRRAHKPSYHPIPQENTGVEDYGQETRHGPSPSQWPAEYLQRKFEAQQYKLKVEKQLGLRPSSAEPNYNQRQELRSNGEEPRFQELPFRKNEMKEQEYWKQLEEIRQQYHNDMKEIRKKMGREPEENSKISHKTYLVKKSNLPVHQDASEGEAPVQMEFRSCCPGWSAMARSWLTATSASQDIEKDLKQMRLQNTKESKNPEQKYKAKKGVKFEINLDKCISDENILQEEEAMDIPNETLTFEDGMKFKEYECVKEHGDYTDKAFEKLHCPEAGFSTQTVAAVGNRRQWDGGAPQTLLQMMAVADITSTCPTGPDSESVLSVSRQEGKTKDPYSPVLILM
Chain of Serine/threonine-protein kinase 17B (Homo sapiens) (O94768 whole entry): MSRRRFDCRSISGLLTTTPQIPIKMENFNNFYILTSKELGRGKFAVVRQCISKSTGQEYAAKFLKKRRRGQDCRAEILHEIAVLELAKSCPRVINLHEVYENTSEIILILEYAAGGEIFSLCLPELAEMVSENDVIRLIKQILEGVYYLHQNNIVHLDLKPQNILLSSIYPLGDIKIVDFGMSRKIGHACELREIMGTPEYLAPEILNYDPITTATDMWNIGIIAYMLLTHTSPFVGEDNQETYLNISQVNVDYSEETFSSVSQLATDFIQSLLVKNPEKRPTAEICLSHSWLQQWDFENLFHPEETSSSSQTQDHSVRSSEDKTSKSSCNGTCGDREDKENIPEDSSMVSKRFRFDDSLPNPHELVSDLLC
Chain of Serine/threonine-protein kinase SIK3 (Homo sapiens) (Q9Y2K2 whole entry, looked up): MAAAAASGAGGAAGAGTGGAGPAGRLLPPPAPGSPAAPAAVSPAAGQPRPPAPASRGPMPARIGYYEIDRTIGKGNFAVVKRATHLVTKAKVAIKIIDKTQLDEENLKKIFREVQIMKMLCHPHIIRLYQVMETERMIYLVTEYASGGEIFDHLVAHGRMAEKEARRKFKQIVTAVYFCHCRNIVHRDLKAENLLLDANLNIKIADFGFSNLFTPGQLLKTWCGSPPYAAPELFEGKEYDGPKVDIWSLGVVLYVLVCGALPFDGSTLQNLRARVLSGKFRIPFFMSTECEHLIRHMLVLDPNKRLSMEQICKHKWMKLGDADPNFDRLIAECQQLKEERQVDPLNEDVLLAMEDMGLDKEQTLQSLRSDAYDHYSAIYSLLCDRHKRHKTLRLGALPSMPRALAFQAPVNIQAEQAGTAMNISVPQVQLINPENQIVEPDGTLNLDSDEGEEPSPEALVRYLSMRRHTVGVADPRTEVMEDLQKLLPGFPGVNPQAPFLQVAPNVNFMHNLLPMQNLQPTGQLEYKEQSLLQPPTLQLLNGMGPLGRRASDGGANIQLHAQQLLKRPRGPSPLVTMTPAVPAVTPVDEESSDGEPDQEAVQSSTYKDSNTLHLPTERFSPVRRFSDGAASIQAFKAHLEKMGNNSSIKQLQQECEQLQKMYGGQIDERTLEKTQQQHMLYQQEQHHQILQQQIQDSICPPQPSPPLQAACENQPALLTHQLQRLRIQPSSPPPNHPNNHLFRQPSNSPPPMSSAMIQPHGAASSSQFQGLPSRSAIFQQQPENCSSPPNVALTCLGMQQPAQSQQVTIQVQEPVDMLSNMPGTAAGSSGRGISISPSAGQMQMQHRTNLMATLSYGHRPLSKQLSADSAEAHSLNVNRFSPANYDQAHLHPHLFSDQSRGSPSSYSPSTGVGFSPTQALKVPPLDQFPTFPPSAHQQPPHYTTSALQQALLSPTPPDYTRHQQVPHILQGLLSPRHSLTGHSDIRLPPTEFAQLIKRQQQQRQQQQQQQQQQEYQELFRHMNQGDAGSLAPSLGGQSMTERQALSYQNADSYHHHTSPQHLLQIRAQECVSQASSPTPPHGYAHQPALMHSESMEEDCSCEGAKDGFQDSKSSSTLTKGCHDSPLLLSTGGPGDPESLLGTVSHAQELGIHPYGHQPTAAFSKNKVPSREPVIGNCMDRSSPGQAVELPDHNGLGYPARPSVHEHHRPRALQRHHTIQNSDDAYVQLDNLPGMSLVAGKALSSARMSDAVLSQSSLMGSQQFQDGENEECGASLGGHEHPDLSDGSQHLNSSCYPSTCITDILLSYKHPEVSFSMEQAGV
Chain of Ribosomal protein S6 kinase beta-1 (Homo sapiens) (P23443 whole entry, looked up): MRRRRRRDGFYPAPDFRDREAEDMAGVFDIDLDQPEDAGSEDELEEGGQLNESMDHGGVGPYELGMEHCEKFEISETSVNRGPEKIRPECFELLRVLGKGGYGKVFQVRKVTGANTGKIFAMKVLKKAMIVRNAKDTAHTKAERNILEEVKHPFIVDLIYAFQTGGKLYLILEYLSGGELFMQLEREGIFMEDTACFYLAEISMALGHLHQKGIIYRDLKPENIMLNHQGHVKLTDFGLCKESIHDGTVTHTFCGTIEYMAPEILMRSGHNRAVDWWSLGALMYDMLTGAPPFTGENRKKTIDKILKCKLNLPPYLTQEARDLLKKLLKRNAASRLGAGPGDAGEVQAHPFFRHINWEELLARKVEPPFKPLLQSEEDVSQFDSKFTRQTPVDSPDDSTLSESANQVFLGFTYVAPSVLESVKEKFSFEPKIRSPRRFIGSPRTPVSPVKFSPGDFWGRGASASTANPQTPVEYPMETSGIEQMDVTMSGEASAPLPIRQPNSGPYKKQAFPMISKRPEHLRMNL
Chain of Macrophage colony-stimulating factor 1 receptor (Homo sapiens) (P07333 whole entry): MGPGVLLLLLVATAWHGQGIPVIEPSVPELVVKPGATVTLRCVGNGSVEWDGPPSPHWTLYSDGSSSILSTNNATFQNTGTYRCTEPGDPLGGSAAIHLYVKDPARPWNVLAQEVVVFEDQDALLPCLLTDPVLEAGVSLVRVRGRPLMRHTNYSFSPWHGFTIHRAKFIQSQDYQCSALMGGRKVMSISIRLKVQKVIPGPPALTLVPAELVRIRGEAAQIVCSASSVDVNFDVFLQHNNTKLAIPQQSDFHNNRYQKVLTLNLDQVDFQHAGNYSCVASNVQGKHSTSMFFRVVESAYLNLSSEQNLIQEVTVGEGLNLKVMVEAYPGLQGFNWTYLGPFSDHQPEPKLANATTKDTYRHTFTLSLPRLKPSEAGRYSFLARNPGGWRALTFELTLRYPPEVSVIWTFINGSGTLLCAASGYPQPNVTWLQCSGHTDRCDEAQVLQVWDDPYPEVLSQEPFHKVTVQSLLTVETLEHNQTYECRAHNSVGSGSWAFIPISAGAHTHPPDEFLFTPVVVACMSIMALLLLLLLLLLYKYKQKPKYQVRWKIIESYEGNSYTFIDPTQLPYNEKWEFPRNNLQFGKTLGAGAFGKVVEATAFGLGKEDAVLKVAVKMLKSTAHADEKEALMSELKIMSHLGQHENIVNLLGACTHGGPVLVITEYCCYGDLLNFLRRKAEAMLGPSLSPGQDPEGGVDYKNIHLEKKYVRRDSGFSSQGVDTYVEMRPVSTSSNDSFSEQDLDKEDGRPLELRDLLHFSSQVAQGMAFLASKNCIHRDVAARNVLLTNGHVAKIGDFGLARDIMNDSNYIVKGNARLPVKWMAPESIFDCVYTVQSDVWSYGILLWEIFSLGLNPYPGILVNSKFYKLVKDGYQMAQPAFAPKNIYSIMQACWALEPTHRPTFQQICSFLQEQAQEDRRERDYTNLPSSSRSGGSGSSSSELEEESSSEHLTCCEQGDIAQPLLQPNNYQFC
Chain of Dual specificity protein kinase CLK4 (Homo sapiens) (Q9HAZ1 whole entry, looked up): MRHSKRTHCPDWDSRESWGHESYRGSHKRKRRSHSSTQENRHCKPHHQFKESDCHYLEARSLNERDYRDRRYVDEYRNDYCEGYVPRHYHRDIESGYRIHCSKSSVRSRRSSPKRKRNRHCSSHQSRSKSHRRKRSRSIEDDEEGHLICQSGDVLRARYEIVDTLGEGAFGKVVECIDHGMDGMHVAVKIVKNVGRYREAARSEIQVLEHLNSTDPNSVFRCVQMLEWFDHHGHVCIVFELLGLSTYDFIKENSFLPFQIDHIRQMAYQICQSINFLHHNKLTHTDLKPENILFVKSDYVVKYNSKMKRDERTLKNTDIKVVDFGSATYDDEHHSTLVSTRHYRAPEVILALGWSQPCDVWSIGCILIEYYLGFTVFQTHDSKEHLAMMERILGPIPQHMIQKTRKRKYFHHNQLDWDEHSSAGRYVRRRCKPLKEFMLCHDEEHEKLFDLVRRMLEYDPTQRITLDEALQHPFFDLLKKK

Compound | residual activity [1] [%] | residual activity [2] [%] | residual activity [3] [%] | residual activity [4] [%] | residual activity [5] [%] | residual activity [6] [%] | residual activity [7] [%] | residual activity [8] [%] | % Inhibition of Control Specific Binding (Mean n=2) [9] [%] | residual activity [10] [%] | residual activity [11] [%] | residual activity [12] [%] | residual activity [13] [%] | residual activity [14] [%] | residual activity [15] [%] | residual activity [16] [%] | residual activity [17] [%] | residual activity [18] [%] | residual activity [19] [%] | residual activity [20] [%] | other results
CCCOc1ccc([C@H]2[C@H](C(=O)O)[C@@H](c3ccc4c(c3)OCO4)CN2CC(=O)Nc2c(CC)cccc2CC)cc1 [A-192621] | 91 | 100 | 76 | 62 | 75 | 29 | 55 | 100 | 1.4 | 91 | 78 | 75 | 100 | 76 | 92 | 100 | 100 | 63 | 93 | 75 | residual activity [21]: 80%; residual activity [22]: 61%; residual activity [23]: 100%; residual activity [24]: 100%; residual activity [25]: 100%; residual activity [26]: 92%; % Inhibition of Control Specific Binding (Mean n=2) [27]: 23.6%; residual activity [28]: 97%; residual activity [29]: 79%; residual activity [30]: 99%; residual activity [31]: 73%; % Inhibition of Control Specific Binding (Mean n=2) [32]: 10%; residual activity [33]: 71%; residual activity [34]: 91%; residual activity [35]: 72%; residual activity [36]: 99%; residual activity [37]: 94%; % Inhibition of Control Specific Binding (Mean n=2) [38]: 33.6%
CCCOc1ccc([C@@H]2[C@@H](C(=O)O)[C@H](c3ccc4c(c3)OCO4)CN2CC(=O)Nc2c(CC)cccc2CC)cc1 [A-1806262] | 94 | 89 | 86 | 99 | 97 | 55 | 72 | 94 | 8.2 | 97 | 91 | 87 | 92 | 79 | 99 | 89 | 98 | 69 | 100 | 78 | residual activity [21]: 84%; residual activity [22]: 90%; residual activity [23]: 100%; residual activity [24]: 99%; residual activity [25]: 100%; residual activity [26]: 100%; % Inhibition of Control Specific Binding (Mean n=2) [27]: 18.3%; residual activity [28]: 96%; residual activity [29]: 86%; residual activity [30]: 100%; residual activity [31]: 100%; % Inhibition of Control Specific Binding (Mean n=2) [32]: 0.9%; residual activity [33]: 89%; residual activity [34]: 93%; residual activity [35]: 87%; residual activity [36]: 100%; residual activity [37]: 96%; % Inhibition of Control Specific Binding (Mean n=2) [38]: 14.6%
